{"source": "PubChem BioAssay AID248", "about": "(DTP/NCI, 2004)", "tested_on": "L1210 leukemia ip in BDF1 mice, survival T/C", "assay": "NCI In Vivo Anticancer Drug Screen. Data for tumor model L1210 Leukemia (intraperitoneal) in B6D2F1 (BDF1) mice", "conditions": "endpoint: mean survival time, higher = longer survival", "procedure,_shortened": "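Antitumor effect is assessed in tumor-bearing animals. Survival in the compound arm is compared with a vehicle-dosed control arm and expressed as their quotient.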", "key": {"[1]": {"conditions": "dose: 25.0 mg/kg/injection, schedule: Q04DX002 (ip), vehicle: Klucel (hydroxypropylcellulose) (HPC)"}}, "note": "Values joined by “and” are separate entries in the source; they are usually repeats but may differ in a detail not shown here. Equal values may be shown once. Toxic doses and inconclusive results are not listed.", "data": [{"molecule": "CN=C(NC)c1ccc(NC(=O)/C=C\\c2ccc(C(=O)Nc3ccc(C(=NC)NC)cc3)cc2)cc1", "values": [{"measurement": "T/C", "setting": "dose: 0.23 mg/kg/injection, schedule: Q01DX Z (ip), vehicle: saline", "result": "90 % of control"}, {"measurement": "T/C", "setting": "dose: 0.47 mg/kg/injection, schedule: Q01DX Z (ip), vehicle: saline", "result": "114 % of control"}, {"measurement": "T/C", "setting": "dose: 0.5 mg/kg/injection, schedule: Q01DX006 (iv), vehicle: saline", "result": "105 % of control"}, {"measurement": "T/C", "setting": "dose: 0.5 mg/kg/injection, schedule: Q01DX Z (ip), vehicle: saline", "result": "104 % of control"}, {"measurement": "T/C", "setting": "dose: 0.5 mg/kg/injection, schedule: Q01DX Z (sc), vehicle: saline", "result": "96 % of control"}, {"measurement": "T/C", "setting": "dose: 0.5 mg/kg/injection, schedule: Q02DX004 (im), vehicle: saline", "result": "98 % of control"}, {"measurement": "T/C", "setting": "dose: 0.94 mg/kg/injection, schedule: Q01DX Z (ip), vehicle: saline", "result": "120 % of control"}, {"measurement": "T/C", "setting": "dose: 1.0 mg/kg/injection, schedule: Q01DX006 (iv), vehicle: saline", "result": "107 % of control"}, {"measurement": "T/C", "setting": "dose: 1.0 mg/kg/injection, schedule: Q01DX Z (ip), vehicle: saline", "result": "118 % of control"}, {"measurement": "T/C", "setting": "dose: 1.0 mg/kg/injection, schedule: Q01DX Z (sc), vehicle: saline", "result": "94 % of control"}, {"measurement": "T/C", "setting": "dose: 1.0 mg/kg/injection, schedule: Q02DX004 (im), vehicle: saline", "result": "105 % of control"}, {"measurement": "T/C", "setting": "dose: 2.0 mg/kg/injection, schedule: Q01DX006 (iv), vehicle: saline", "result": "100 % of control"}, {"measurement": "T/C", "setting": "dose: 2.0 mg/kg/injection, schedule: Q01DX Z (sc), vehicle: saline", "result": "105 % of control"}, {"measurement": "T/C", "setting": "dose: 2.0 mg/kg/injection, schedule: Q02DX004 (im), vehicle: saline", "result": "96 % of control"}, {"measurement": "T/C", "setting": "dose: 3.75 mg/kg/injection, schedule: Q01DX Z (ip), vehicle: saline", "result": "248 % of control"}, {"measurement": "T/C", "setting": "dose: 4.0 mg/kg/injection, schedule: Q01DX006 (iv), vehicle: saline", "result": "105 % of control"}, {"measurement": "T/C", "setting": "dose: 4.0 mg/kg/injection, schedule: Q01DX Z (ip), vehicle: saline", "result": "209 % of control"}, {"measurement": "T/C", "setting": "dose: 4.0 mg/kg/injection, schedule: Q01DX Z (sc), vehicle: saline", "result": "164 % of control"}, {"measurement": "T/C", "setting": "dose: 4.0 mg/kg/injection, schedule: Q02DX004 (im), vehicle: saline", "result": "107 % of control"}, {"measurement": "T/C", "setting": "dose: 8.0 mg/kg/injection, schedule: Q01DX006 (iv), vehicle: saline", "result": "116 % of control"}, {"measurement": "T/C", "setting": "dose: 8.0 mg/kg/injection, schedule: Q01DX Z (ip), vehicle: saline", "result": "121 % of control"}, {"measurement": "T/C", "setting": "dose: 15.0 mg/kg/injection, schedule: Q01DX Z (ip), vehicle: saline", "result": "86 % of control"}, {"measurement": "T/C", "setting": "dose: 15.0 mg/kg/injection, schedule: Q01DX Z (oral), vehicle: other", "result": "97 % of control"}, {"measurement": "T/C", "setting": "dose: 16.0 mg/kg/injection, schedule: Q01DX004 (im), vehicle: saline", "result": "123 % of control"}, {"measurement": "T/C", "setting": "dose: 16.0 mg/kg/injection, schedule: Q01DX006 (iv), vehicle: saline", "result": "107 % of control"}, {"measurement": "T/C", "setting": "dose: 16.0 mg/kg/injection, schedule: Q01DX Z (ip), vehicle: saline", "result": "107 % of control"}, {"measurement": "T/C", "setting": "dose: 16.0 mg/kg/injection, schedule: Q01DX Z (sc), vehicle: saline", "result": "120 % of control"}, {"measurement": "T/C", "setting": "dose: 16.0 mg/kg/injection, schedule: Q02DX004 (im), vehicle: saline", "result": "191 % of control"}, {"measurement": "T/C", "setting": "dose: 30.0 mg/kg/injection, schedule: Q01DX Z (oral), vehicle: other", "result": "95 % of control"}, {"measurement": "T/C", "setting": "dose: 32.0 mg/kg/injection, schedule: Q01DX004 (im), vehicle: saline", "result": "161 % of control"}, {"measurement": "T/C", "setting": "dose: 60.0 mg/kg/injection, schedule: Q01DX Z (oral), vehicle: other", "result": "104 % of control"}, {"measurement": "T/C", "setting": "dose: 62.5 mg/kg/injection, schedule: Q## X009 (oral), vehicle: saline", "result": "93 % of control"}, {"measurement": "T/C", "setting": "dose: 125.0 mg/kg/injection, schedule: Q## X010 (oral), vehicle: saline", "result": "112 % of control"}, {"measurement": "T/C", "setting": "dose: 128.0 mg/kg/injection, schedule: Q01DX004 (im), vehicle: saline", "result": "116 % of control"}, {"measurement": "T/C", "setting": "dose: 250.0 mg/kg/injection, schedule: Q## X010 (oral), vehicle: saline", "result": "111 % of control"}, {"measurement": "T/C", "setting": "dose: 500.0 mg/kg/injection, schedule: Q## X009 (oral), vehicle: saline", "result": "102 % of control"}]}, {"molecule": "CCCCCCCCCCCCCCCCCCNC(=O)NNC(=O)CCCC(=O)NNC(=O)NCCCCCCCCCCCCCCCCCC", "values": [{"measurement": "T/C", "setting": "dose: 50.0 mg/kg/injection, schedule: Q01DX001 (ip), vehicle: saline", "result": "91 % of control"}, {"measurement": "T/C", "setting": "dose: 100.0 mg/kg/injection, schedule: Q01DX001 (ip), vehicle: saline", "result": "97 % of control"}, {"measurement": "T/C", "setting": "dose: 200.0 mg/kg/injection, schedule: Q01DX001 (ip), vehicle: saline", "result": "100 % of control"}, {"measurement": "T/C", "setting": "dose: 400.0 mg/kg/injection, schedule: Q01DX001 (ip), vehicle: saline", "result": "97 % of control"}]}, {"molecule": "O=C(Nc1ccc(C2=NCCCN2)cc1)Nc1ccc(C2=NCCCN2)cc1", "values": [{"measurement": "T/C", "setting": "dose: 0.31 mg/kg/injection, schedule: Q01DX Z (ip), vehicle: saline", "result": "94 % of control"}, {"measurement": "T/C", "setting": "dose: 0.63 mg/kg/injection, schedule: Q01DX Z (ip), vehicle: saline", "result": "110 % of control"}, {"measurement": "T/C", "setting": "dose: 1.25 mg/kg/injection, schedule: Q01DX Z (ip), vehicle: saline", "result": "114 % of control and 119 % of control"}, {"measurement": "T/C", "setting": "dose: 2.5 mg/kg/injection, schedule: Q01DX Z (ip), vehicle: saline", "result": "114 % of control"}, {"measurement": "T/C", "setting": "dose: 4.4 mg/kg/injection, schedule: Q01DX Z (ip), vehicle: saline", "result": "96 % of control"}]}, {"molecule": "O=C(COc1ccccc1C(=O)O)Nc1ccccc1", "values": [{"measurement": "T/C", "setting": "[1]", "result": "114 % of control"}, {"measurement": "T/C", "setting": "dose: 50.0 mg/kg/injection, schedule: Q04DX002 (ip), vehicle: Klucel (hydroxypropylcellulose) (HPC)", "result": "92 % of control"}, {"measurement": "T/C", "setting": "dose: 100.0 mg/kg/injection, schedule: Q04DX002 (ip), vehicle: Klucel (hydroxypropylcellulose) (HPC)", "result": "96 % of control"}]}, {"molecule": "CCC(C)[P+](c1ccccc1)(c1ccccc1)c1ccccc1", "note": "(stereo not given)", "values": [{"measurement": "T/C", "setting": "dose: 3.75 mg/kg/injection, schedule: Q01DX001 (ip), vehicle: carboxymethylcellulose (CMC)", "result": "118 % of control"}, {"measurement": "T/C", "setting": "dose: 7.0 mg/kg/injection, schedule: Q01DX015 (ip), vehicle: carboxymethylcellulose (CMC)", "result": "118 % of control"}, {"measurement": "T/C", "setting": "dose: 7.5 mg/kg/injection, schedule: Q01DX001 (ip), vehicle: carboxymethylcellulose (CMC)", "result": "118 % of control"}, {"measurement": "T/C", "setting": "dose: 12.5 mg/kg/injection, schedule: Q04DX002 (ip), vehicle: Klucel (hydroxypropylcellulose) (HPC)", "result": "109 % of control"}, {"measurement": "T/C", "setting": "dose: 14.0 mg/kg/injection, schedule: Q01DX015 (ip), vehicle: carboxymethylcellulose (CMC)", "result": "120 % of control"}, {"measurement": "T/C", "setting": "dose: 15.0 mg/kg/injection, schedule: Q01DX001 (ip), vehicle: carboxymethylcellulose (CMC)", "result": "119 % of control"}, {"measurement": "T/C", "setting": "[1]", "result": "91 % of control"}]}]}
